“Also recorded” adds a separate entry of the source. Like-named read-outs stand apart in the source and are kept apart here.
Tests used:
[1] = tested on: NO production by mouse peritoneal cells; test: Nitric oxide assay (Griess), LPS + IFN-γ-activated mouse peritoneal cells; type: cell-based; settings: 24 h; for Effect on IFN-γ + LPS-activated NO production (in words): 10 µM screening, mouse peritoneal cells; for IC50: (LPS + IFN-γ)-activated mouse peritoneal cells, concentrations 0.01–50.0 μM tested, read-out: Inhibition of nitric oxide production, IC50
Method: The tested compounds were dissolved in dimethyl sulfoxide (DMSO) to make stock solutions at a concentration of 50 mM, and then stored at −20 °C. Their biological activities were screened using a final concentration of 10 µM. […] This concentration of DMSO was devoid of any effects in biological assays.
(§1) The animals were killed by cervical dislocation and injected intraperitoneally with 8 mL of sterile saline. Pooled peritoneal cells collected from the mice (n = 4–6 in individual experiments) were washed and re-suspended in a culture medium. The cell suspension was seeded onto 96-well round-bottom microplates (Costar, Corning, NY, USA). Final samples were supplemented to 100 µL volumes, containing 1–2 × 10^6 cells per well, depending on the assay. Cultures were maintained at 37 °C, 5% CO2 in a humidified incubator (Heraeus Holding GmbH, Hanau, Germany). The complete RPMI-1640 culture medium (Sigma-Aldrich, St. Louis, MO, USA) contained 10% heat-inactivated fetal bovine serum, 2 mM L-glutamine, 50 µg/mL gentamicin, and 5 × 10^−5 M 2-mercaptoethanol (all Sigma-Aldrich).
High-output NO production was induced by a mixture of lipopolysaccharide (LPS from E. coli 0111:B4, 0.1 ng/mL; Sigma) and murine recombinant interferon-γ (IFN-γ, 5 ng/mL; R&D Systems, Minneapolis, MN, USA) in mouse peritoneal cells (2 × 10^6/mL). The tested compounds were applied concomitantly with both priming stimuli, and peritoneal macrophages were cultured for 24 h. The concentration of nitrites in the supernatants of the cell cultures was taken as a measure of NO production. It was detected in individual cell-free samples (50 µL) incubated for 5 min at ambient temperature with an aliquot of Griess reagent (1% sulfanilamide/0.1% naphtylendiamine/2.5% H3PO4). Absorbance at 540 nm was recorded using a microplate spectrophotometer (Tecan, Grödig, Austria). A nitrite calibration curve was used to convert absorbance values to µM of nitrite.

mouse peritoneal cells = test: Cytotoxicity assay (WST-1), viability of mouse peritoneal cells; type: cell-based; settings: 10 µM compound, primary murine macrophages
Method: (§2) The tested compounds were dissolved in dimethyl sulfoxide (DMSO) to make stock solutions at a concentration of 50 mM, and then stored at −20 °C. Their biological activities were screened using a final concentration of 10 µM.
as §1, with “Germany).” for “Germany). The complete RPMI-1640 culture medium (Sigma-Aldrich, St. Louis, MO, USA) contained 10% heat-inactivated fetal bovine serum, 2 mM L-glutamine, 50 µg/mL gentamicin, and 5 × 10^−5 M 2-mercaptoethanol (all Sigma-Aldrich).”
(§3) The viability of mouse peritoneal cells was determined using a colorimetric assay based on the cleavage of tetrazolium salt WST-1 by mitochondrial dehydrogenases in viable cells (Roche Diagnostics, Mannheim, Germany). The cells (1 × 10^6/mL) were cultured as described above. The viability of primary murine macrophages was tested in the presence of 10 µM of the respective test substance for […]. After the first 24 h of cultivation, WST-1 was added (10 µL), and the cells were kept in a Heraeus incubator at 37 °C for an additional 3 h. Triton X-100 (1%) was used as a common reference in the cytotoxicity assay. Optical density was evaluated at wavelengths of 450–690 nm.

[2] = tested on: secretion of cytokines TNF-α, IL-1β, IL-6, IL-10 and chemokine RANTES by murine peritoneal cells; test: Cytokine assays (ELISA), LPS-stimulated murine peritoneal cells; type: cell-based, mouse; settings: 1 µg/mL LPS, 21 h, IL-6, IL-10, RANTES
Method: as §1
(§4) The concentration of PGE2 was determined in the supernatants of cells cultured (2 × 10^6/mL) after the addition of 10 ng/mL LPS for an interval of 6 h. The levels of cytokines TNF-α, IL-1β, IL-6, and IL-10, and the chemokine RANTES were determined in the supernatants of cells cultured (2 × 10^6/mL) in the presence of 1 µg/mL LPS for an interval 21 h. The extent of PGE2 release and cytokine secretion was determined using enzyme-linked immune-absorbent assay (ELISA) kits according to the manufacturer’s instructions (R&D Systems, Minneapolis, MN, USA).

[3] = tested on: production of PGE2 by murine peritoneal cells; test: Prostaglandin E2 assay (ELISA), LPS-stimulated murine peritoneal cells; type: cell-based, mouse; settings: 10 ng/mL LPS, 6 h, murine peritoneal cells 2.0 × 10^6/mL
Method: as §1, §4

RAW264.7 macrophages = settings: cited from earlier work
[4] = Cytotoxicity assay (WST-1), viability of mouse peritoneal cells; type: cell-based; settings: 10 µM compound, mouse peritoneal cells 1.0 × 10^6/mL, 24 h, read-out: Cell viability (O.D.) relative to untreated controls; for viability at 24 h, 10 µM: primary mouse peritoneal cells (macrophages)
Method: as §2
as §1, with “Germany).” for “Germany). The complete RPMI-1640 culture medium (Sigma-Aldrich, St. Louis, MO, USA) contained 10% heat-inactivated fetal bovine serum, 2 mM L-glutamine, 50 µg/mL gentamicin, and 5 × 10^−5 M 2-mercaptoethanol (all Sigma-Aldrich).”
as §3

[5] = tested on: polymorphonuclear lymphocytes; parameters: method as in PMID 30653318; settings: cited from earlier work

For `C=C1C[C@@H](O)[C@@H]2[C@H](OC(=O)[C@H]2C)[C@H]2[C@H](C)C(=O)C[C@@H]12` [Compound 1, 8-epiisoamberboin], which “NO production relative to controls stimulated with IFN-γ + LPS” value ([1]; 10 µM compound, mouse peritoneal cells 2.0 × 10^6/mL) is on record?
The value was “about 25%”.

And the “Effect on IFN-γ + LPS-activated NO production (in words)” value [1]?
Its value is “significant NO-inhibitory effect”.

And the IC50 [1]?
The IC50 was 23.8 µM.

What about the “Cytotoxicity / effect on cell viability (in words)” value (from here on “Cytotoxicity / effect”) (mouse peritoneal cells) of the same molecule?
Its value is “without any suppression of cell viability”.

Which IC50 [1] does the source give for `C=C1C[C@@H](O)[C@@H]2[C@H](OC(=O)[C@H]2C)[C@H]2[C@H](C)[C@@H](O)C[C@@H]12` [Compound 2, 8-epiisolippidiol] here?
The IC50 was greater than 100 µM.

Which IC50 [1] does the source give for `CC1=CC(=O)C2=C(C)C[C@H](O)[C@@H]3[C@H](OC(=O)[C@H]3C)[C@@H]12` [Compound 3, deacetylmatricarin] here?
Its IC50 is greater than 100 µM.

Which IC50 [1] does the source give for `CC1=C2C(=O)C=C(CO)[C@@H]2[C@H]2OC(=O)[C@@H](C)[C@@H]2[C@@H](O)C1` [Compound 4, 11β,13-dihydrolactucin] here?
Its IC50 is greater than 100 µM.

For `C=C1CC(O)C2C(C)C(=O)OC2C2C1CC(OC1OC(CO)C(O)C(O)C1O)C2C` (stereo not shown) [Compound 5, 4,8-diepiisolippidiol glucoside], which IC50 [1] is on record?
Its IC50 is greater than 100 µM.

Which IC50 [1] does the source give for `CC1=CC(=O)C2=C(C)CC(OC3OC(CO)C(O)C(O)C3O)C3C(C)C(=O)OC3C12` (stereo not shown) [Compound 6, deacetylmatricarin glucoside] here?
Its IC50 is greater than 100 µM.

Which IC50 [1] does the source give for `CC1=C2C(=O)C=C(COC3OC(CO)C(O)C(O)C3O)C2C2OC(=O)C(C)C2CC1` (stereo not shown) [Compound 7, crepidiaside B] here?
Its IC50 is greater than 100 µM.

For `C=C1C(O)CC2C(C)C(=O)OC2C2C(=C)C(OC3OC(CO)C(O)C(O)C3O)CC12` (stereo not shown) [Compound 8, ixerin F], which IC50 [1] is on record?
The IC50 was greater than 100 µM.

For `CC1=CC(=O)C2=C(C)CCC3C(OC(=O)C3(C)OC3OC(CO)C(O)C(O)C3O)C12` (stereo not drawn) [Compound 9, 11β-hydroxyleukodin glucoside], which IC50 [1] is on record?
The IC50 was greater than 100 µM.

With `CC1=CC(=O)C2=C(C)CC(OC3OC(CO)C(O)C(O)C3O)C3C(OC(=O)C3(C)O)C12` (stereo not drawn) [Compound 10, 11β-hydroxydeacetylmatricarin glucoside] as the molecule, how does the IC50 [1] read?
The IC50 was greater than 100 µM.

Which IC50 [1] does the source give for `C=C1CC(O)C2C(=C)C(=O)OC2C2C1CC(OC1OC(CO)C(O)C(O)C1O)C2C` (stereo not shown) [Compound 11, 11,13-dehydro-8-epiisolippidiol glucoside] here?
Its IC50 is greater than 100 µM.

For `C=C1C(=O)OC2C1CCC(C)(O)C1CC(OC3OC(CO)C(O)C(O)C3O)C(=C)C21` (stereo not shown) [Compound 12, ixerin D], which IC50 [1] is on record?
The IC50 was greater than 100 µM.

With `C=C1C(=O)O[C@@H]2[C@H]3C(CO)=CC(=O)C3=C(C)CC[C@@H]12` [Compound 13, 8-deoxylactucin] as the molecule, how does the “Effect on IFN-γ + LPS-activated NO production (in words)” value [1] read?
Its value is “significant NO-inhibitory effect”.

What about the IC50 [1] of the same molecule?
Its IC50 is 2.81 µM.

What about the “Effect on secretion of cytokines (in words)” value [2] of the same molecule?
The value was “did not interfere”.

And the “Effect on immune-activated production of PGE2 (in words)” value [3]?
The value was “did not interfere”.

What about the “Cytotoxicity / effect” value (mouse peritoneal cells) of the same molecule?
The value was “without any suppression of cell viability”.

What about the IC50 (RAW264.7 macrophages; RAW264.7 macrophages, read-out: Inhibition of nitric oxide production, IC50) of the same molecule?
The IC50 was 13 µM.

With `C=C(CO)C(=O)O[C@H]1CC(=C)[C@@H]2C[C@H](O)C(=C)[C@@H]2[C@H]2OC(=O)C(=C)[C@@H]21` [Compound 14, cynaropicrin] as the molecule, how does the IC50 [1] read?
The IC50 was 9.87 µM.

And the viability at 24 h, 10 µM [4]?
The viability at 24 h, 10 µM was roughly 50%.

And the “Cytotoxicity / effect” value (mouse peritoneal cells)?
Its value is “cytotoxic; also recorded: remarkable cytotoxicity”.

With `C=C1C(=O)O[C@@H]2C[C@@H](C)[C@@H]3C=CC(=O)[C@@]3(C)[C@@H](O)[C@H]12` [Compound 15, helenalin] as the molecule, how does the IC50 [1] read?
The IC50 was 0.74 µM.

Which results are given for `C=C1C(=O)O[C@@H]2/C=C(\C)CC/C=C(\C)CC[C@@H]12` [Compound 16, costunolide]?
IC50 [1]: 3.2 µM; viability at 24 h, 10 µM [4]: ~50%; Cytotoxicity / effect on cell viability (in words) (mouse peritoneal cells): moderate toxicity; also recorded: remarkable cytotoxicity

With `C=C1C(=O)O[C@@H]2/C=C(\C)CC/C=C(\C)C[C@@H](OC(=O)/C(=C/CO)CO)[C@@H]12` [Compound 18, eupatoriopicrin] as the molecule, how does the IC50 [1] read?
Its IC50 is 1.65 µM.

What about the “Concentration up to which not toxic” value [5] of the same molecule?
The value was no more than 2500 nM.

What about the viability at 10 µM [4] of the same molecule?
The viability at 10 µM was roughly 10%.

And the “Cytotoxicity / effect” value (mouse peritoneal cells)?
Its value is “highly toxic; also recorded: remarkable cytotoxicity”.

What does the source list for `C=C1C(=O)O[C@H]2[C@H]1CC/C(C)=C/CC[C@@]1(C)O[C@@H]21` [Compound 19, parthenolide]?
Effect on IFN-γ + LPS-activated NO production (in words) [1]: substantially decreased the production of NO; IC50 [1]: 2.79 µM; viability at 24 h, 10 µM [4]: 81.1 ± 6.34%

Which results are given for `C=C1C(=O)OC2C1CC(O)C(C)=CCCC1(C)OC21` (stereo not shown) [Compound 20, 9-hydroxyparthenolide]?
Effect on IFN-γ + LPS-activated NO production (in words) [1]: substantially decreased the production of NO; IC50 [1]: 5.64 µM; viability at 10 µM [4]: 77 ± 5.09%

For `CC=C(C)C(=O)OC1(C)C(=O)OC2C=C(C)CCC=C(C)CCC(OC(C)=O)C21` (stereo not shown) [Compound 21, laserolide], which IC50 [1] is on record?
Its IC50 is 90.2 µM.

What about the “Cytotoxicity / effect” value (mouse peritoneal cells) of the same molecule?
Its value is “did not show any cytotoxicity”.

With eupatolide [Compound 17] as the molecule, how does the “Effect on IFN-γ + LPS-activated NO production (in words)” value [1] read?
The value was “significant NO-inhibitory effect”.

What about the IC50 [1] of the same molecule?
Its IC50 is 4.38 µM.

And the IC50 (RAW264.7 macrophages; murine macrophage line RAW264.7, read-out: Inhibitory potency against NO production, concentration range)?
The IC50 was 1.54 to 6.43 µM.
